# Reference: patent US20110117020A1, “IMAGING DENDRIMER NANOPROBES AND USES THEREOF” (THE TRUSTEES OF THE UNIVERSITY OF PENNSYLVANIA, priority 2008, published 2011)
# Marks after values point to notes of the source that are not given here.
# Columns and labels:
# [1] = Optical absorption spectra (UV-Vis spectrophotometer); type: physicochemical; settings: for Absorption log e / Absorption λmax: Table I; for Absorption Q band / Absorption Q band Ig ε / Absorption Soret band / Absorption Soret band Ig ε: Table II
# Protocol: (§1) Quartz fluorometric cells (Starna, Inc, 1 cm optical path length) were used in optical experiments. Optical spectra were recorded on a Perkin-Elmer Lambda 35 UV-Vis spectrophotometer. Steady state fluorescence and phosphorescence measurements were performed on a SPEX Fluorolog-2 spectrofluorometer (Jobin-Yvon Horiba), equipped with an infra-red enhanced R2658P PMT (Hamamatsu). Emission spectra were obtained using solutions with absorption at the excitation maxima of approximately 0.05 OD. Quantum yields of emission of all the synthesized compounds were measured relative to the fluorescence of tetraphenylporphyrin (φfl=0:11 in deox. C6H6).
# [2] = Steady state phosphorescence: emission maxima, quantum yields, lifetimes; type: physicochemical; settings: for Phosphorescence φ: PhCN, deoxygenated, relative to fluorescence of H2TPP in deoxygenated benzene
# Protocol: as §1
# [3] = solution in PhCN, deoxygenated by Ar-bubbling
# [4] = solution in PhCN, deoxygenated by Ar-bubbling, above 900 nm large experimental errors
Absorption log e ([1]; first band),Absorption λmax ([1]; first band) [nm],Absorption log e ([1]; second band),Absorption λmax ([1]; second band) [nm],τ0 ([2]; Table I) [μs],φp ([2]; Table I),Absorption Q band [1] [nm],Absorption Q band Ig ε [1],Absorption Soret band [1] [nm],Absorption Soret band Ig ε [1],Phosphorescence φ [2],"Phosphorescence τ0 [2, 3] [μs]","Phosphorescence λmax [2, 4]",Phosphorescence λmax ([2]; Table I) [nm],SMILES
–,–,–,–,–,–,526,4.57,422,5.61,0.08,504,696 nm,–,CCCCOC(=O)c1cc(C(=O)OCCCC)cc(C2=C3C=CC(=N3)C(c3cc(C(=O)OCCCC)cc(C(=O)OCCCC)c3)=c3ccc4[n]3[Pd][n]3c2ccc3C(c2cc(C(=O)OCCCC)cc(C(=O)OCCCC)c2)=C2C=CC(=N2)C=4c2cc(C(=O)OCCCC)cc(C(=O)OCCCC)c2)c1 [Pd-1-OBu]
5.14,441,5.28,700,12,0.06,–,–,–,–,–,–,–,923,"O=C(O)c1cc(C(=O)O)cc(C2=C3N=C(C(c4cc(C(=O)O)cc(C(=O)O)c4)=c4c5cc6ccccc6cc5c5[n]4[Pt][n]4c2c2cc6ccccc6cc2c4C(c2cc(C(=O)O)cc(C(=O)O)c2)=C2N=C(C=5c4cc(C(=O)O)cc(C(=O)O)c4)c4cc5ccccc5cc42)c2cc4ccccc4cc23)c1 [Octacarboxytetra naphthoporphyrin Pt, Octacarboxytetra naphthoporphyrin]"
–,–,–,–,–,–,716,5.29,458,5.29,0.02,52,961 [c] nm,–,CCCCOC(=O)c1cc(C(=O)OCCCC)cc(C2=C3N=C(C(c4cc(C(=O)OCCCC)cc(C(=O)OCCCC)c4)=c4c5cc6ccccc6cc5c5[n]4[Pd][n]4c2c2cc6ccccc6cc2c4C(c2cc(C(=O)OCCCC)cc(C(=O)OCCCC)c2)=C2N=C(C=5c4cc(C(=O)OCCCC)cc(C(=O)OCCCC)c4)c4cc5ccccc5cc42)c2cc4ccccc4cc23)c1 [Pd-3-OBu]

# The next lines start with the compound.
SMILES,Absorption log e ([1]; first band),Absorption λmax ([1]; first band) [nm],Absorption log e ([1]; second band),Absorption λmax ([1]; second band) [nm],τ0 ([2]; Table I) [μs],φp ([2]; Table I),Absorption Q band [1] [nm],Absorption Q band Ig ε [1],Absorption Soret band [1] [nm],Absorption Soret band Ig ε [1],Phosphorescence φ [2],"Phosphorescence τ0 [2, 3] [μs]","Phosphorescence λmax [2, 4]",Phosphorescence λmax ([2]; Table I) [nm]
"O=C(O)c1cc(C(=O)O)cc(C2=C3C=CC(=N3)C(c3cc(C(=O)O)cc(C(=O)O)c3)=c3ccc4[n]3[Pt][n]3c2ccc3C(c2cc(C(=O)O)cc(C(=O)O)c2)=C2C=CC(=N2)C=4c2cc(C(=O)O)cc(C(=O)O)c2)c1 [Octacarboxyporphyrin Pt, Octacarboxyporphyrin]",5.54,406,4.50,512,53,0.24,–,–,–,–,–,–,–,–
O=C(O)c1cc(C(=O)O)cc(C2=C3N=C(C(c4cc(C(=O)O)cc(C(=O)O)c4)=c4c5ccccc5c5[n]4[Pd][n]4c2c2ccccc2c4C(c2cc(C(=O)O)cc(C(=O)O)c2)=C2N=C(C=5c4cc(C(=O)O)cc(C(=O)O)c4)c4ccccc42)c2ccccc23)c1,5.46,446,5.00,635,210,0.09,–,–,–,–,–,–,–,816
O=C(O)c1cc(C(=O)O)cc(C2=C3N=C(C(c4cc(C(=O)O)cc(C(=O)O)c4)=c4c5ccccc5c5[n]4[Pt][n]4c2c2ccccc2c4C(c2cc(C(=O)O)cc(C(=O)O)c2)=C2N=C(C=5c4cc(C(=O)O)cc(C(=O)O)c4)c4ccccc42)c2ccccc23)c1,5.23,433,5.00,622,41,0.30,–,–,–,–,–,–,–,791
